# Experimental data reported in publication PMC11360041 (ACS Omega, 2024).
# Tested on: Fusarium graminearum
# Assay: microbe, parasite or virus in culture
# Type: cell-based
# Details: read-out: Inhibition rate, Fg
row,SMILES,inhibition at 50 µg/mL
1,CSc1ccc(C=NNC(=O)Cn2ccc(=O)c3ccccc32)cc1 [Compound 10],2.4 ± 0.6%
2,CC(C)(C)c1ccc(C=NNC(=O)Cn2ccc(=O)c3ccccc32)cc1 [Compound 3],16.7 ± 1.3%
3,O=C(Cn1ccc(=O)c2ccccc21)NN=Cc1ccccc1 [Compound 1],14.3 ± 1.2%
4,"COC(=O)Nc1nc2ccccc2[nH]1 [carbendazim, reference compound]",29 ± 1.7%
5,O=C(Cn1ccc(=O)c2ccccc21)NN=Cc1ccc(F)cc1 [Compound 12],21.4 ± 1.4%
6,O=C(Cn1ccc(=O)c2ccccc21)NN=Cc1cccnc1 [Compound 19],26.2 ± 0.9%
7,O=C(Cn1ccc(=O)c2ccccc21)NN=Cc1ccc(-n2cccn2)cc1 [Compound 9],9.5 ± 0.5%
8,Cc1ccc(C=NNC(=O)Cn2ccc(=O)c3ccccc32)cc1 [Compound 2],14.3 ± 1.3%
9,O=C(Cn1ccc(=O)c2ccccc21)NN=Cc1ccc(Br)cc1 [Compound 14],2.4 ± 0.6%

# Tested on: Sclerotinia sclerotiorum
# Assay: not given
# Type: cell-based
# Details: read-out: Inhibition rate, Ss
row,SMILES,inhibition at 50 µg/mL
1,CSc1ccc(C=NNC(=O)Cn2ccc(=O)c3ccccc32)cc1 [Compound 10],7.3 ± 1.4%
2,CC(C)(C)c1ccc(C=NNC(=O)Cn2ccc(=O)c3ccccc32)cc1 [Compound 3],22 ± 1.9%
3,O=C(Cn1ccc(=O)c2ccccc21)NN=Cc1ccccc1 [Compound 1],19.5 ± 0.7%
4,"COC(=O)Nc1nc2ccccc2[nH]1 [carbendazim, reference compound]",100%
5,O=C(Cn1ccc(=O)c2ccccc21)NN=Cc1ccc(F)cc1 [Compound 12],7.3 ± 1.2%
6,O=C(Cn1ccc(=O)c2ccccc21)NN=Cc1cccnc1 [Compound 19],36.6 ± 1.6%
7,O=C(Cn1ccc(=O)c2ccccc21)NN=Cc1ccc(-n2cccn2)cc1 [Compound 9],12.2 ± 1.8%
8,Cc1ccc(C=NNC(=O)Cn2ccc(=O)c3ccccc32)cc1 [Compound 2],12.2 ± 1.2%
9,O=C(Cn1ccc(=O)c2ccccc21)NN=Cc1ccc(Br)cc1 [Compound 14],2.4 ± 0.4%

# Tested on: Fusarium oxysporium f. sp. cucumeris
# Assay: not given
# Type: cell-based
# Details: read-out: Inhibition rate, Fc
row,SMILES,inhibition at 50 µg/mL
1,CSc1ccc(C=NNC(=O)Cn2ccc(=O)c3ccccc32)cc1 [Compound 10],12.2 ± 1.3%
2,CC(C)(C)c1ccc(C=NNC(=O)Cn2ccc(=O)c3ccccc32)cc1 [Compound 3],10.2 ± 1.6%
3,O=C(Cn1ccc(=O)c2ccccc21)NN=Cc1ccccc1 [Compound 1],22.4 ± 1.9%
4,O=C(Cn1ccc(=O)c2ccccc21)NN=Cc1ccc(F)cc1 [Compound 12],16.3 ± 1.5%
5,O=C(Cn1ccc(=O)c2ccccc21)NN=Cc1cccnc1 [Compound 19],26.5 ± 0.7%
6,O=C(Cn1ccc(=O)c2ccccc21)NN=Cc1ccc(-n2cccn2)cc1 [Compound 9],18.4 ± 0.7%
7,Cc1ccc(C=NNC(=O)Cn2ccc(=O)c3ccccc32)cc1 [Compound 2],28.6 ± 2.3%
8,O=C(Cn1ccc(=O)c2ccccc21)NN=Cc1ccc(Br)cc1 [Compound 14],22.4 ± 1.3%

# Tested on: Physalospora piricola
# Assay: not given
# Type: cell-based
# Details: read-out: Inhibition rate, Pp, 50 mg/L, Physalospora piricola
row,SMILES,inhibition at 50 µg/mL
1,CSc1ccc(C=NNC(=O)Cn2ccc(=O)c3ccccc32)cc1 [Compound 10],58.8 ± 3.2%
2,CC(C)(C)c1ccc(C=NNC(=O)Cn2ccc(=O)c3ccccc32)cc1 [Compound 3],35.3 ± 2.1%
3,O=C(Cn1ccc(=O)c2ccccc21)NN=Cc1ccccc1 [Compound 1],16.2 ± 0.5%
4,"COC(=O)Nc1nc2ccccc2[nH]1 [carbendazim, reference compound]",96 ± 1.2%
5,O=C(Cn1ccc(=O)c2ccccc21)NN=Cc1cccnc1 [Compound 19],44.1 ± 2.8%
6,O=C(Cn1ccc(=O)c2ccccc21)NN=Cc1ccc(-n2cccn2)cc1 [Compound 9],27.9 ± 1.2%
7,Cc1ccc(C=NNC(=O)Cn2ccc(=O)c3ccccc32)cc1 [Compound 2],17.6 ± 1.4%
8,O=C(Cn1ccc(=O)c2ccccc21)NN=Cc1ccc(Br)cc1 [Compound 14],32.4 ± 2.3%

# Tested on: Phytophthora capsici
# Assay: not given
# Type: cell-based
# Details: read-out: Inhibition rate, Pc
row,SMILES,inhibition at 50 µg/mL
1,CSc1ccc(C=NNC(=O)Cn2ccc(=O)c3ccccc32)cc1 [Compound 10],23.8 ± 1.6%
2,CC(C)(C)c1ccc(C=NNC(=O)Cn2ccc(=O)c3ccccc32)cc1 [Compound 3],23.8 ± 1.5%
3,O=C(Cn1ccc(=O)c2ccccc21)NN=Cc1ccccc1 [Compound 1],21.4 ± 1.1%
4,O=C(Cn1ccc(=O)c2ccccc21)NN=Cc1ccc(F)cc1 [Compound 12],14.3 ± 1.6%
5,O=C(Cn1ccc(=O)c2ccccc21)NN=Cc1cccnc1 [Compound 19],14.3 ± 1.2%
6,O=C(Cn1ccc(=O)c2ccccc21)NN=Cc1ccc(-n2cccn2)cc1 [Compound 9],14.3 ± 1.1%
7,Cc1ccc(C=NNC(=O)Cn2ccc(=O)c3ccccc32)cc1 [Compound 2],26.2 ± 1.8%
8,O=C(Cn1ccc(=O)c2ccccc21)NN=Cc1ccc(Br)cc1 [Compound 14],21.4 ± 1.8%

# Tested on: Bipolaris maydis
# Assay: not given
# Type: cell-based
# Details: read-out: Inhibition rate, Bm
row,SMILES,inhibition at 50 µg/mL
1,CSc1ccc(C=NNC(=O)Cn2ccc(=O)c3ccccc32)cc1 [Compound 10],13.3 ± 0.9%
2,CC(C)(C)c1ccc(C=NNC(=O)Cn2ccc(=O)c3ccccc32)cc1 [Compound 3],8.9 ± 0.7%
3,O=C(Cn1ccc(=O)c2ccccc21)NN=Cc1ccccc1 [Compound 1],15.6 ± 1.7%
4,O=C(Cn1ccc(=O)c2ccccc21)NN=Cc1ccc(F)cc1 [Compound 12],15.6 ± 1.7%
5,O=C(Cn1ccc(=O)c2ccccc21)NN=Cc1cccnc1 [Compound 19],46.7 ± 1.1%
6,O=C(Cn1ccc(=O)c2ccccc21)NN=Cc1ccc(-n2cccn2)cc1 [Compound 9],15.6 ± 2.1%
7,Cc1ccc(C=NNC(=O)Cn2ccc(=O)c3ccccc32)cc1 [Compound 2],11.1 ± 2.1%
8,O=C(Cn1ccc(=O)c2ccccc21)NN=Cc1ccc(Br)cc1 [Compound 14],4.4 ± 0.6%

# Tested on: Alternaria solani
# Assay: not given
# Type: cell-based
# Details: read-out: Inhibition rate, As
row,SMILES,inhibition at 50 µg/mL
1,CSc1ccc(C=NNC(=O)Cn2ccc(=O)c3ccccc32)cc1 [Compound 10],30.8 ± 2.1%
2,CC(C)(C)c1ccc(C=NNC(=O)Cn2ccc(=O)c3ccccc32)cc1 [Compound 3],30.8 ± 2.3%
3,O=C(Cn1ccc(=O)c2ccccc21)NN=Cc1ccccc1 [Compound 1],30.8 ± 2.3%
4,"COC(=O)Nc1nc2ccccc2[nH]1 [carbendazim, reference compound]",98 ± 1.4%
5,O=C(Cn1ccc(=O)c2ccccc21)NN=Cc1ccc(F)cc1 [Compound 12],23.1 ± 1.1%
6,O=C(Cn1ccc(=O)c2ccccc21)NN=Cc1cccnc1 [Compound 19],46.2 ± 2.2%
7,O=C(Cn1ccc(=O)c2ccccc21)NN=Cc1ccc(-n2cccn2)cc1 [Compound 9],38.5 ± 1.3%
8,Cc1ccc(C=NNC(=O)Cn2ccc(=O)c3ccccc32)cc1 [Compound 2],30.8 ± 1.6%
9,O=C(Cn1ccc(=O)c2ccccc21)NN=Cc1ccc(Br)cc1 [Compound 14],23.1 ± 1.5%

# Tested on: TMV
# Assay: Protective effect of compounds against TMV in vivo
# Design: species or system tobacco mosaic virus
# Details: Tobacco mosaic virus, read-out: relative inhibition rate (%) protective effect
SMILES,inhibition at 100 µg/mL,inhibition at 500 µg/mL
"NNC(=O)Cn1ccc(=O)c2ccccc21 [C, (4-Oxo-4H-quinolin-1-yl)-acetic Acid Hydrazide]",11.4 ± 2.9%,47.8 ± 4.8%

# Tested on: Rhizoctonia solani
# Assay: not given
# Type: cell-based
# Details: read-out: Inhibition rate, Rs
row,SMILES,inhibition at 50 µg/mL
1,CSc1ccc(C=NNC(=O)Cn2ccc(=O)c3ccccc32)cc1 [Compound 10],3.6 ± 1.1%
2,CC(C)(C)c1ccc(C=NNC(=O)Cn2ccc(=O)c3ccccc32)cc1 [Compound 3],17.9 ± 1.8%
3,O=C(Cn1ccc(=O)c2ccccc21)NN=Cc1ccccc1 [Compound 1],14.3 ± 1.3%
4,"COC(=O)Nc1nc2ccccc2[nH]1 [carbendazim, reference compound]",100%
5,O=C(Cn1ccc(=O)c2ccccc21)NN=Cc1ccc(F)cc1 [Compound 12],32.1 ± 2.1%
6,O=C(Cn1ccc(=O)c2ccccc21)NN=Cc1cccnc1 [Compound 19],26.8 ± 1.4%
7,O=C(Cn1ccc(=O)c2ccccc21)NN=Cc1ccc(-n2cccn2)cc1 [Compound 9],35.7 ± 2.2%
8,Cc1ccc(C=NNC(=O)Cn2ccc(=O)c3ccccc32)cc1 [Compound 2],17.9 ± 1.7%
9,O=C(Cn1ccc(=O)c2ccccc21)NN=Cc1ccc(Br)cc1 [Compound 14],1.8 ± 0.7%

# Tested on: TMV
# Assay: Curative effect of compounds against TMV in vivo
# Details: Tobacco mosaic virus, read-out: relative inhibition rate (%) curative effect
SMILES,inhibition at 100 µg/mL,inhibition at 500 µg/mL
"NNC(=O)Cn1ccc(=O)c2ccccc21 [C, (4-Oxo-4H-quinolin-1-yl)-acetic Acid Hydrazide]",8.2 ± 0.5%,31.5 ± 2%

# Tested on: Botrytis cinerea
# Assay: not given
# Type: cell-based
# Details: read-out: Inhibition rate, Bc
row,SMILES,inhibition at 50 µg/mL
1,CSc1ccc(C=NNC(=O)Cn2ccc(=O)c3ccccc32)cc1 [Compound 10],14.6 ± 1.2%
2,CC(C)(C)c1ccc(C=NNC(=O)Cn2ccc(=O)c3ccccc32)cc1 [Compound 3],29.2 ± 1.7%
3,O=C(Cn1ccc(=O)c2ccccc21)NN=Cc1ccccc1 [Compound 1],33.3 ± 1.6%
4,"COC(=O)Nc1nc2ccccc2[nH]1 [carbendazim, reference compound]",86 ± 1.4%
5,O=C(Cn1ccc(=O)c2ccccc21)NN=Cc1ccc(F)cc1 [Compound 12],25 ± 1.4%
6,O=C(Cn1ccc(=O)c2ccccc21)NN=Cc1cccnc1 [Compound 19],20.8 ± 0.9%
7,O=C(Cn1ccc(=O)c2ccccc21)NN=Cc1ccc(-n2cccn2)cc1 [Compound 9],25 ± 1.5%
8,Cc1ccc(C=NNC(=O)Cn2ccc(=O)c3ccccc32)cc1 [Compound 2],25 ± 1.5%
9,O=C(Cn1ccc(=O)c2ccccc21)NN=Cc1ccc(Br)cc1 [Compound 14],20.8 ± 2.1%

# Tested on: TMV
# Assay: Inactivation effect of compounds against TMV in vivo
# Design: species or system tobacco mosaic virus
# Details: Tobacco mosaic virus, read-out: relative inhibition rate (%) inactive effect
SMILES,inhibition at 100 µg/mL,inhibition at 500 µg/mL
CSc1ccc(C=NNC(=O)Cn2ccc(=O)c3ccccc32)cc1 [Compound 10],0%,15.4 ± 2%
CC(C)(C)c1ccc(C=NNC(=O)Cn2ccc(=O)c3ccccc32)cc1 [Compound 3],0%,24.1 ± 1%
"NNC(=O)Cn1ccc(=O)c2ccccc21 [C, (4-Oxo-4H-quinolin-1-yl)-acetic Acid Hydrazide]",17.2 ± 1.1%,45.9 ± 3.3%
O=C(Cn1ccc(=O)c2ccccc21)NN=Cc1ccccc1 [Compound 1],0%,29.3 ± 1.4%
"CCOC(=O)Cn1ccc(=O)c2ccccc21 [Compound B, (4-Oxo-4H-quinolin-1-yl)-acetic Acid Ethyl Ester]",0%,32.1 ± 1.6%
O=C(Cn1ccc(=O)c2ccccc21)NN=Cc1ccc(F)cc1 [Compound 12],0%,27.4 ± 3.9%
O=C(Cn1ccc(=O)c2ccccc21)NN=Cc1cccnc1 [Compound 19],0%,20.5 ± 3.6%
O=C(Cn1ccc(=O)c2ccccc21)NN=Cc1ccc(-n2cccn2)cc1 [Compound 9],5.1 ± 0.8%,38.1 ± 3.2%
Cc1ccc(C=NNC(=O)Cn2ccc(=O)c3ccccc32)cc1 [Compound 2],0%,26.7 ± 3%
O=C(Cn1ccc(=O)c2ccccc21)NN=Cc1ccc(Br)cc1 [Compound 14],0%,31.7 ± 2.5%

# Tested on: watermelon anthracnose
# Assay: organism not typed
# Type: cell-based
# Details: read-out: Inhibition rate, Wa
row,SMILES,inhibition at 50 µg/mL
1,CSc1ccc(C=NNC(=O)Cn2ccc(=O)c3ccccc32)cc1 [Compound 10],14 ± 1.7%
2,CC(C)(C)c1ccc(C=NNC(=O)Cn2ccc(=O)c3ccccc32)cc1 [Compound 3],16.3 ± 1.3%
3,O=C(Cn1ccc(=O)c2ccccc21)NN=Cc1ccccc1 [Compound 1],16.3 ± 1.3%
4,"COC(=O)Nc1nc2ccccc2[nH]1 [carbendazim, reference compound]",100%
5,O=C(Cn1ccc(=O)c2ccccc21)NN=Cc1ccc(F)cc1 [Compound 12],16.3 ± 1.6%
6,O=C(Cn1ccc(=O)c2ccccc21)NN=Cc1cccnc1 [Compound 19],46.5 ± 1.3%
7,O=C(Cn1ccc(=O)c2ccccc21)NN=Cc1ccc(-n2cccn2)cc1 [Compound 9],14 ± 1.5%
8,Cc1ccc(C=NNC(=O)Cn2ccc(=O)c3ccccc32)cc1 [Compound 2],14 ± 1.3%
9,O=C(Cn1ccc(=O)c2ccccc21)NN=Cc1ccc(Br)cc1 [Compound 14],18.6 ± 1.7%
